Source: patent US4264765A, “Salts of erythromycin A esters” (priority 1980, dated 1981)
Like-named read-outs stand apart in the source and are kept apart here.

System: Staph, Aureus (Smith)
Test: standard test using mice infected with Staph, Aureus (Smith), subcutaneous treatment
Assay type: in vivo
Conditions: Staphylococcus aureus, sc, pH 7.4, read-out: CD 50, mice, subcutaneous, isotonic or pH 7.4 buffered aqueous solution
Description: The above compounds were tested per their antibacterial uses in a standard test, using mice infected with Staph, Aureus (Smith). […] The compounds of the above examples were administered subcutaneously as isotonic solutions or aqueous solutions buffered to a pH of 7.4.

[1] = inoculation (a): LD50 of 10-100
[2] = inoculation (b): LD50 of 100-1000

| Structure (SMILES) | ED50 [1] | ED50 [2] | also measured |
| --- | --- | --- | --- |
| CCOC(=O)CCC(=O)O[C@H]1[C@H](O[C@@H]2[C@@H](C)[C@H](O[C@H]3C[C@@](C)(OC)[C@@H](O)[C@H](C)O3)[C@@H](C)C(=O)O[C@H](CC)[C@@](C)(O)[C@H](O)[C@@H](C)C(=O)[C@H](C)C[C@@]2(C)O)O[C@H](C)C[C@@H]1[N+](C)(C)COC(=O)CCCCCC(=O)O [Example 14, 2'-ethylsuccinyl-N-pimelyloxymethyl erythromycin chloride] | 47 mg/kg | – | – |
| CCOC(=O)CCC(=O)O[C@H]1[C@H](O[C@@H]2[C@@H](C)[C@H](O[C@H]3C[C@@](C)(OC)[C@@H](O)[C@H](C)O3)[C@@H](C)C(=O)O[C@H](CC)[C@@](C)(O)[C@H](O)[C@@H](C)C(=O)[C@H](C)C[C@@]2(C)O)O[C@H](C)C[C@@H]1[N+](C)(C)COC(=O)C(C)(C)C [Example 2, 2'-ethylsuccinyl-N-pivalyloxymethylerythromycin A iodide] | – | 143 mg/kg | – |
| CCC(=O)O[C@H]1[C@H](O[C@@H]2[C@@H](C)[C@H](O[C@H]3C[C@@](C)(OC)[C@@H](O)[C@H](C)O3)[C@@H](C)C(=O)O[C@H](CC)[C@@](C)(O)[C@H](O)[C@@H](C)C(=O)[C@H](C)C[C@@]2(C)O)O[C@H](C)C[C@@H]1[N+](C)(C)COC(=O)C(C)(C)C [Example 1, 2'-propionyl-N-pivalyloxymethylerythromycin A iodide] | 88 mg/kg | – | – |
| CCOC(=O)CCC(=O)O[C@H]1[C@H](O[C@@H]2[C@@H](C)[C@H](O[C@H]3C[C@@](C)(OC)[C@@H](O)[C@H](C)O3)[C@@H](C)C(=O)O[C@H](CC)[C@@](C)(O)[C@H](O)[C@@H](C)C(=O)[C@H](C)C[C@@]2(C)O)O[C@H](C)C[C@@H]1[N+](C)(C)COC(=O)C(C)(C)C [Example 3, 2'-ethylsuccinyl-N-pivalyloxymethyl erythromycin A chloride] | 58 mg/kg | – | – |
| CC[C@H]1OC(=O)[C@H](C)[C@@H](O[C@H]2C[C@@](C)(OC)[C@@H](O)[C@H](C)O2)[C@H](C)[C@@H](O[C@@H]2O[C@H](C)C[C@H]([N+](C)(C)COC(=O)C(C)(C)C)[C@H]2OC(=O)CCC(=O)O)[C@](C)(O)C[C@@H](C)C(=O)[C@H](C)[C@@H](O)[C@]1(C)O [Example 10, 2'-succinyl-N-pivalyloxymethyl erythromycin A chloride] | 37 mg/kg | – | – |
| CCOC(=O)CCC(=O)O[C@H]1[C@H](O[C@@H]2[C@@H](C)[C@H](O[C@H]3C[C@@](C)(OC)[C@@H](O)[C@H](C)O3)[C@@H](C)C(=O)O[C@H](CC)[C@@](C)(O)[C@H](O)[C@@H](C)C(=O)[C@H](C)C[C@@]2(C)O)O[C@H](C)C[C@@H]1[N+](C)(C)COC(=O)CC [Example 7, 2'-ethylsuccinyl-N-propionyloxymethyl erythromycin A iodide] | – | – | ED50 (LD 50 column prints 100): 24 mg/kg |
| CCOC(=O)CCC(=O)O[C@H]1[C@H](O[C@@H]2[C@@H](C)[C@H](O[C@H]3C[C@@](C)(OC)[C@@H](O)[C@H](C)O3)[C@@H](C)C(=O)O[C@H](CC)[C@@](C)(O)[C@H](O)[C@@H](C)C(=O)[C@H](C)C[C@@]2(C)O)O[C@H](C)C[C@@H]1[N+](C)(C)COC(=O)c1ccccc1 [Example 5, 2'-ethylsuccinyl-N-benzoyloxymethyl erythromycin A iodide] | – | – | ED50 (LD 50 column prints 100): 52 mg/kg |
| CC[C@H]1OC(=O)[C@H](C)[C@@H](O[C@H]2C[C@@](C)(OC)[C@@H](O)[C@H](C)O2)[C@H](C)[C@@H](O[C@@H]2O[C@H](C)C[C@H]([N+](C)(C)COC(=O)C(C)(C)C)[C@H]2OC(=O)CCCC(=O)O)[C@](C)(O)C[C@@H](C)C(=O)[C@H](C)[C@@H](O)[C@]1(C)O [Example 12, 2'-glutaryl-N-pivalyloxymethyl erythromycin A chloride] | – | 73 mg/kg | – |
| CCC(=O)O[C@H]1[C@H](O[C@@H]2[C@@H](C)[C@H](O[C@H]3C[C@@](C)(OC)[C@@H](O)[C@H](C)O3)[C@@H](C)C(=O)O[C@H](CC)[C@@](C)(O)[C@H](O)[C@@H](C)C(=O)[C@H](C)C[C@@]2(C)O)O[C@H](C)C[C@@H]1[N+](C)(C)COC(=O)c1ccccc1 [Example 4, 2'-propionyl-N-benzoyloxymethyl erythromycin A chloride] | – | 40 mg/kg | – |
